Experimental data as given in article PMC10910009, “Comparing ATPase activity of ATP-binding cassette subfamily C member 4, lamprey CFTR, and human CFTR using an antimony-phosphomolybdate assay” (Frontiers in Pharmacology, 2024).

T1: Lp-CFTR (Petromyzon marinus, UniProt A0A5Q0TXR8)
T1 construct: lamprey CFTR in pFastBac vector with 6xHis tag; baculovirus/Sf9 crude plasma membranes, not purified; PKA-phosphorylated
T1 sequence (A0A5Q0TXR8 1-1466): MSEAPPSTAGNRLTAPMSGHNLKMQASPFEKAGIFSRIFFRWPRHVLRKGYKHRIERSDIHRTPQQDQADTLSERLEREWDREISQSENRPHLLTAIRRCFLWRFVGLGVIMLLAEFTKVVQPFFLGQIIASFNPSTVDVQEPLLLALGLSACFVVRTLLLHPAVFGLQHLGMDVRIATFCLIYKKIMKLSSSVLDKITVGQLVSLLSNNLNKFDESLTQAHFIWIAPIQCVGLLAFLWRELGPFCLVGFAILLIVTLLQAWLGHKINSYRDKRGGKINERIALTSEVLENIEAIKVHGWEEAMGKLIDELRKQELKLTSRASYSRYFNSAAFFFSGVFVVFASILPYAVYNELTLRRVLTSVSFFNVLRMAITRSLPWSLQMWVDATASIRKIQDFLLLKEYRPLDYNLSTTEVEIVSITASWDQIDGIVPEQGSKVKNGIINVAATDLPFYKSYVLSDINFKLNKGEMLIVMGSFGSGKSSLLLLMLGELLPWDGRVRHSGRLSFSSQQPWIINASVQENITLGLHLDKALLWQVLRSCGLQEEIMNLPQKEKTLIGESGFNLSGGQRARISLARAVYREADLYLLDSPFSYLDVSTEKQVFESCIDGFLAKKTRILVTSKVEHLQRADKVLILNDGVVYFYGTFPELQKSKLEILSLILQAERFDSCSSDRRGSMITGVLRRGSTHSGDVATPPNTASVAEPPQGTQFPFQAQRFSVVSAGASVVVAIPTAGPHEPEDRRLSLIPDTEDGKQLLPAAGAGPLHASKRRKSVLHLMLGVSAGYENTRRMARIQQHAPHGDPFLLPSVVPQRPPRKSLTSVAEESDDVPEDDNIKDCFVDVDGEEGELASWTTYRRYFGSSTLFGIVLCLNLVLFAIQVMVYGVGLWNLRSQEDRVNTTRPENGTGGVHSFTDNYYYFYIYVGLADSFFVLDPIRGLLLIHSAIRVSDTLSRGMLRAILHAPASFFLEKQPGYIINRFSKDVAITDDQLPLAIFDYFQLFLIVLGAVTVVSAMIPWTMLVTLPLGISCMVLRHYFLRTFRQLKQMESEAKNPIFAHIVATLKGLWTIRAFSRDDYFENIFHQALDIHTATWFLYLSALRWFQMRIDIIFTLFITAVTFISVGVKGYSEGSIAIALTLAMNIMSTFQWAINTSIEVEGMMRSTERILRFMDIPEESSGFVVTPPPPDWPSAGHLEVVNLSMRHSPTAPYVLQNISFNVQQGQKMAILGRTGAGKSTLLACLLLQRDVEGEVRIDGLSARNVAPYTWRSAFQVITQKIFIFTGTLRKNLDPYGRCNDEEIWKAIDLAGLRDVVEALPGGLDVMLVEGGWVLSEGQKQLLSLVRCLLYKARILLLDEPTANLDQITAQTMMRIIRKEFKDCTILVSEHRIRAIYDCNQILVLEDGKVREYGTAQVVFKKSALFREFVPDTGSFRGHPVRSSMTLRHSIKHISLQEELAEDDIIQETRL


Experiments:
hCFTR = target: T2, hCFTR (Homo sapiens, UniProt P13569); conditions: Sf9 crude membranes, control membranes subtracted; 1 mM Na2ATP, 5 mM MgCl2, PKA, pH 7.4, 30 °C, 1 h
T2 construct: gene CFTR

Lp-CFTR = target: T1, Lp-CFTR; assay: antimony-phosphomolybdate Pi release (ATPase); format: biochemical; conditions: Sf9 crude membranes, control membranes subtracted; 1 mM Na2ATP, 5 mM MgCl2, PKA, pH 7.4, 30 °C, 1 h
[1] = substrate: Nc1ncnc2c1ncn2[C@@H]1O[C@H](COP(=O)(O)OP(=O)(O)OP(=O)(O)O)[C@@H](O)[C@H]1O; assay: antimony-phosphomolybdate Pi release (ATPase), Michaelis-Menten fit; format: biochemical, Homo sapiens; conditions: printed as Kd but from Michaelis-Menten fit of ATPase activity, Sf9 crude membranes, control membranes subtracted, 5 mM MgCl2, pH 7.4, 37 °C, 20 min, no PKA, no transport substrate

T2 sequence (P13569 whole entry): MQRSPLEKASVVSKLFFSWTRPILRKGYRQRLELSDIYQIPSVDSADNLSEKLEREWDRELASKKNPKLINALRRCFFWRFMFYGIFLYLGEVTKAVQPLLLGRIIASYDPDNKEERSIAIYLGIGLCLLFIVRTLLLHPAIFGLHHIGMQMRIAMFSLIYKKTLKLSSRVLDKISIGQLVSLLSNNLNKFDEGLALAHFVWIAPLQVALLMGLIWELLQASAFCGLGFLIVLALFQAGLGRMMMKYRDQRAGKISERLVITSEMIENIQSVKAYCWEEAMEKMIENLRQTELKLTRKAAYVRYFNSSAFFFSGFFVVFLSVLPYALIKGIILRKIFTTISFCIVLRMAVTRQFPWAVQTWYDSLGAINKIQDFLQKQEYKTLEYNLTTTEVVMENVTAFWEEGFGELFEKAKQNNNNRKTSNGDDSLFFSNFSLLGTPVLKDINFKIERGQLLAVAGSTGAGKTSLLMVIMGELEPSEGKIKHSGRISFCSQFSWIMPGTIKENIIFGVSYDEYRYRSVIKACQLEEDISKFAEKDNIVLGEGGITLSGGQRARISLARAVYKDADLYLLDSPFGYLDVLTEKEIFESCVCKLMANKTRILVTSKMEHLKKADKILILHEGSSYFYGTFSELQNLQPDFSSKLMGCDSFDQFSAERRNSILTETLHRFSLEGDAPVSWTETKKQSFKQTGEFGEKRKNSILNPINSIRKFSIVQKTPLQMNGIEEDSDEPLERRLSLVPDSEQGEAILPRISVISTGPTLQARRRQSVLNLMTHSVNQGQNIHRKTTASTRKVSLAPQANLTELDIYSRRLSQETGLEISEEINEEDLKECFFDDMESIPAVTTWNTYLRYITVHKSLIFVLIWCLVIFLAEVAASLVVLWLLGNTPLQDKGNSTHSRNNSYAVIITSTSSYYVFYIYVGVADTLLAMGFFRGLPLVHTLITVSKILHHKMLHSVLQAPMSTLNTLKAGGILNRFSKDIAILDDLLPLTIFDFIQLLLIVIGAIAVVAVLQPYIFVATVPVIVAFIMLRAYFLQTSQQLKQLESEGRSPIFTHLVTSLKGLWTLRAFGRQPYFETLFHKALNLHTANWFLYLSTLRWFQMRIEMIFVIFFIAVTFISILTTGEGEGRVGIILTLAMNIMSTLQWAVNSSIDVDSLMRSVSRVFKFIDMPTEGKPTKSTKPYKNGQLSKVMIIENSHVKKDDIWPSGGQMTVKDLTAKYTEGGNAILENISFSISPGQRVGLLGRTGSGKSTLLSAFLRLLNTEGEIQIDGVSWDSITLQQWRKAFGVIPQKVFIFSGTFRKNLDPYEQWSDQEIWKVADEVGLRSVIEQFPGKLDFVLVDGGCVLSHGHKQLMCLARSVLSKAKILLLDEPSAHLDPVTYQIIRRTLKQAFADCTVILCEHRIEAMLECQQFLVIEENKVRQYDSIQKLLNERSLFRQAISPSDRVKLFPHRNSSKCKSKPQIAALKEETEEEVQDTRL

Molecule	antimony-phosphomolybdate Pi release (ATPase) (hCFTR)	antimony-phosphomolybdate Pi release (ATPase) (Lp-CFTR)	Km [1] [µM]
Nc1ncnc2c1ncn2[C@@H]1O[C@H](COP(=O)(O)OP(=O)(O)OP(=O)(O)O)[C@@H](O)[C@H]1O [ATP]	hCFTR exhibited higher ATPase activity in high PKA compared to low PKA conditions	Lp-CFTR exhibited higher ATPase activity in high PKA compared to low PKA conditions	–
hABCC4 (Homo sapiens) (protein, human ABCC4 in pFastBac vector with 6xHis tag; baculovirus/Sf9 crude plasma membranes, not purified) MLPVYQEVKPNPLQDANLCSRVFFWWLNPLFKIGHKRRLEEDDMYSVLPEDRSQHLGEELQGFWDKEVLRAENDAQKPSLTRAIIKCYWKSYLVLGIFTLIEESAKVIQPIFLGKIINYFENYDPMDSVALNTAYAYATVLTFCTLILAILHHLYFYHVQCAGMRLRVAMCHMIYRKALRLSNMAMGKTTTGQIVNLLSNDVNKFDQVTVFLHFLWAGPLQAIAVTALLWMEIGISCLAGMAVLIILLPLQSCFGKLFSSLRSKTATFTDARIRTMNEVITGIRIIKMYAWEKSFSNLITNLRKKEISKILRSSCLRGMNLASFFSASKIIVFVTFTTYVLLGSVITASRVFVAVTLYGAVRLTVTLFFPSAIERVSEAIVSIRRIQTFLLLDEISQRNRQLPSDGKKMVHVQDFTAFWDKASETPTLQGLSFTVRPGELLAVVGPVGAGKSSLLSAVLGELAPSHGLVSVHGRIAYVSQQPWVFSGTLRSNILFGKKYEKERYEKVIKACALKKDLQLLEDGDLTVIGDRGTTLSGGQKARVNLARAVYQDADIYLLDDPLSAVDAEVSRHLFELCICQILHEKITILVTHQLQYLKAASQILILKDGKMVQKGTYTEFLKSGIDFGSLLKKDNEESEQPPVPGTPTLRNRTFSESSVWSQQSSRPSLKDGALESQDTENVPVTLSEENRSEGKVGFQAYKNYFRAGAHWIVFIFLILLNTAAQVAYVLQDWWLSYWANKQSMLNVTVNGGGNVTEKLDLNWYLGIYSGLTVATVLFGIARSLLVFYVLVNSSQTLHNKMFESILKAPVLFFDRNPIGRILNRFSKDIGHLDDLLPLTFLDFIQTLLQVVGVVSVAVAVIPWIAIPLVPLGIIFIFLRRYFLETSRDVKRLESTTRSPVFSHLSSSLQGLWTIRAYKAEERCQELFDAHQDLHSEAWFLFLTTSRWFAVRLDAICAMFVIIVAFGSLILAKTLDAGQVGLALSYALTLMGMFQWCVRQSAEVENMMISVERVIEYTDLEKEAPWEYQKRPPPAWPHEGVIIFDNVNFMYSPGGPLVLKHLTALIKSQEKVGIVGRTGAGKSSLISALFRLSEPEGKIWIDKILTTEIGLHDLRKKMSIIPQEPVLFTGTMRKNLDPFNEHTDEELWNALQEVQLKETIEDLPGKMDTELAESGSNFSVGQRQLVCLARAILRKNQILIIDEATANVDPRTDELIQKKIREKFAHCTVLTIAHRLNTIIDSDKIMVLDSGRLKEYDEPYVLLQNKESLFYKMVQQLGKAEAAALTETAKQVYFKRNYPHIGHTDHMVTNTSNGQPSTLTIFETAL	–	–	550 ± 280
